Experimental data published in US6989396B2, “Tropane alkaloid multidrug resistance inhibitors from Erythroxylum pervillei and use of the same” (The Board of Trustees of the University of Illinois, priority 2001, dated 2006).
In brackets after ≈: the same amount, converted by molar mass. Several values for one entry are separate records, joined by “and”; a condition that tells them apart may be missing. Equal entries are not always repeated. Where two headings read alike, the source gives them in different places.

Tests used:
KB-8-5 cells = test: In vivo hollow fiber test: KB-8-5; set-up: species or system NCr nu/nu mice; conditions: vinblastine 100 μg/kg; reversing agents 0.136 mmol/kg
Method: (§1) In vivo hollow fiber test. […] Confluent monolayers of KB-3, KB-V1 or KB-8-5 cells were harvested, collected by centrifugation and resuspended in conditioned medium at a concentration of 7.5×10^5 cells/ml.
(§2) Test compounds were administrated once daily by intraperitoneal injection from day 3–6 after implantation. Body weights were measure daily.
(§3) After incubating at 37° C. for 4 hours, the culture medium was aspirated and the samples were washed twice with normal saline containing 2.5% protamine sulfate solution by overnight incubation at 4° C. […] The formazan was extracted from each sample with DMSO (250 μl/well) for 4 hours at room temperature on a rotation platform.

KB-V1 cells [1] = conditions: growth inhibitory effect of vinblastine; cited from earlier work
KB-V1 cells [2] = test: In vivo hollow fiber test: KB-V1; set-up: species or system NCr nu/nu mice; conditions: for growth inhibition, administered as single agents: KB-V1 or KB-8-5 cells in hollow fibers implanted into NCr nu/nu mice; for Observed inhibition from coadministration with vinblastine, KB-V1, i.p. site / Growth inhibition, single agent, KB-V1, s.c. site: i.p. injection once daily days 3–6; for Growth inhibition, single agent, KB-V1, s.c. site: vinblastine 250 μg/kg, reversing agents 0.136 mmol/kg
Method: as §1, §2, §3

KB-3 cells = test: Growth inhibitory potential (sulforhodamine B cell survival assay): KB-3; type: cell-based; conditions: Homo sapiens, read-out: IC50 KB-3
Method: (§4) One part of a natural product drug discovery program involves monitoring the potential of plant extracts to reverse multiple drug resistance. […] To investigate the potential of plant extracts or compounds to reverse multidrug-resistance, KB-V1 cells are treated with different concentrations of plant extracts or compounds in the presence (1 μg/ml) or absence of vinblastine.
(§5) Cytotoxic potential. The cytotoxic potential of test substances with KB-3, KB-V1 and KB-8-5 cells was determined as described previously (24). Briefly, various concentrations of test compounds (dissolved in 10 μl of 10% DMSO) were transferred to 96-well plates, and 190 μl aliquots of cell suspensions (5×10^4 cells/ml) were added to each well. The plates then were incubated for 72 hours at 37° C. (100% humidity with a 5% CO2 atmosphere in air), and 100 μl of cold 20% aqueous trichloroacetic acid were added to the growth medium in each well to fix the cells. The cultures were incubated at 4° C. for 30 minutes, washed, air-dried, stained with sulforhodamine B solution, and washed with 1% acetic acid. Finally, 200 μl of 10 mM Tris base were added to each well and the optical densities were determined at 515 nm utilizing an ELISA plate reader. In each case, a zero-day control was performed by adding an equivalent number of cells to several wells and incubating at 37° C. for 30 minutes, and processing as described above. Optical density values obtained with the zero-day control were subtracted, and cell survival, relative to control (solvent-treated) cultures, was calculated. The cytotoxic potential of the compounds with CEM and CEM/VLB100 cells was determined as described by Beck et al. (30). Cells were grown in 24-well plates at a density of 5–6×10^5 cells/ml. At 48 hours, the cell number was determined using a Coulter Counter, with a channelizer to distinguish cells from debris.

CEM/VLB100 cells = test: MDR reversal in drug-resistant human leukemia CEM/VLB100 cells; type: cell-based; conditions: Homo sapiens; CEM/VLB100 cells; read-out: IC50 value of the cytotoxic drug in the absence of modulator
Method: as §5, with “Finally, 200 μl of 10 mM Tris base were added to each well and the optical densities were determined at 515 nm utilizing an ELISA plate reader.” left out

[3] = tested on: SKVLB (ovarian adenocarcinoma, multidrug resistance); test: Multidrug resistance inhibition in SKVLB (pGp +ve); type: cell-based, human; conditions: Homo sapiens
[4] = tested on: SKOV3 (ovarian adenocarcinoma); test: Cytotoxicity in ovarian adenocarcinoma SKOV3 (pGp -ve); type: cell-based; conditions: Homo sapiens, SK-OV-3, read-out: IC50 SKOV3 (pGp − ve)
Method: (§6) Cytotoxicity assay. Compounds 1–9 were evaluated for cytotoxic activity against a panel of human cancer cell lines, including KB-V1 in the presence and absence of VLB, according to an established protocol (68).

KB-V1, drug resistant KB = test: In vitro cytotoxicity, human tumor panel: KB-V1 with or without vinblastine; type: cell-based
Method: as §6

HCT-15, colon = test: In vitro multidrug resistance modulation (DINIB synergy): HCT-15; type: cell-based, human; conditions: increase of cytotoxicity of DINIB 1 × 10^−4 M; modulator μg/mL: verapamil 12.5, cyclosporin A 6.3, pervilleine B 12.5, C 3.1, D 50.0, F 25.0; <25 insignificant, >100 strong synergy
From the text: (§7) Alkaloids 5–7 and 9 were further evaluated for their efficacy as potential modulators of P-glycoprotein. This assay assessed the ability of these test compounds to increase the cytotoxicity of an agent of the MDR phenotype {4,9-dihydro-3-iso-butyl-2-methyl-1-(p-nitrophenacyl)-4,9-dioxo-1H-naphth[2-3-d]imidazolium bromide (DINIB)}, compared with an agent not of the MDR phenotype (5-flurouracil), used as a negative control (73, 74).
(§8) In vitro multidrug resistance assay.

[5] = tested on: LNCaP, hormone-dependent prostate cancer; test: In vitro cytotoxicity, human tumor panel: LNCaP; type: cell-based; conditions: Homo sapiens, LNCaP, read-out: ED50 LNCaP
Method: as §6

[6] = tested on: KB, oral epidermoid carcinoma; test: In vitro cytotoxicity, human tumor panel: KB; type: cell-based; conditions: Homo sapiens, read-out: ED50 KB
Method: as §6

LOX IMVI, melanoma = test: In vitro multidrug resistance modulation (DINIB synergy): LOX IMVI; type: cell-based, human; conditions: increase of cytotoxicity of DINIB 1 × 10^−4 M; modulator μg/mL: verapamil 12.5, cyclosporin A 6.3, pervilleine B 12.5, C 3.1, D 50.0, F 25.0; <25 insignificant, >100 strong synergy
From the text: as §7, §8

KB-V1 cells [7] = test: Reversal of MDR, cell survival assay: KB-V1 with or without vinblastine; type: cell-based, human
Method: as §4
as §5, with “Finally, 200 μl of 10 mM Tris base were added to each well and the optical densities were determined at 515 nm utilizing an ELISA plate reader.” left out

[8] = tested on: SW626, human ovarian adenocarcinoma; test: In vitro cytotoxicity, human tumor panel: SW626; type: cell-based; conditions: SW626, read-out: ED50 SW626
Method: as §6

Col2, colon cancer = test: In vitro cytotoxicity, human tumor panel: Col2; type: cell-based; conditions: Homo sapiens, read-out: ED50 Col2
Method: as §6

UO-31, renal = test: In vitro multidrug resistance modulation (DINIB synergy): UO-31; type: cell-based, human; conditions: increase of cytotoxicity of DINIB 1 × 10^−4 M; modulator μg/mL: verapamil 12.5, cyclosporin A 6.3, pervilleine B 12.5, C 3.1, D 50.0, F 25.0; <25 insignificant, >100 strong synergy
From the text: as §7, §8

CAKI-1, renal = test: In vitro multidrug resistance modulation (DINIB synergy): CAKI-1; type: cell-based, human; conditions: increase of cytotoxicity of DINIB 1 × 10^−4 M; modulator μg/mL: verapamil 12.5, cyclosporin A 6.3, pervilleine B 12.5, C 3.1, D 50.0, F 25.0; <25 insignificant, >100 strong synergy
From the text: as §7, §8

BC1, breast cancer = test: In vitro cytotoxicity, human tumor panel: BC1; type: cell-based; conditions: Homo sapiens, read-out: ED50 BCI
Method: as §6

Lu1, lung cancer = test: In vitro cytotoxicity, human tumor panel: Lu1; type: cell-based; conditions: Homo sapiens, read-out: ED50 Lu1
Method: as §6

[9] = vinblastine 250 μg/kg + reversing agent 0.136 mmol/kg
[10] = summation of single-agent inhibitions

CC[C@]1(O)C[C@@H]2CN(CCc3c([nH]c4ccccc34)[C@@](C(=O)OC)(c3cc4c(cc3OC)N(C)[C@H]3[C@@](O)(C(=O)OC)[C@H](OC(C)=O)[C@]5(CC)C=CCN6CC[C@]43[C@@H]65)C2)C1 [vinblastine, reference compound]
Growth inhibition, single agent, KB-8-5, s.c. site (KB-8-5 cells): 2.3%
resistance of KB-V1 cells relative to parental KB-3 cells (KB-V1 cells [1]): > 200 fold
growth inhibition, administered as single agents (KB-V1 cells [2]): not significantly inhibited
Observed inhibition from coadministration with vinblastine, KB-V1, i.p. site (KB-V1 cells [2]; [9]): 60.3%
Growth inhibition, single agent, KB-V1, s.c. site (KB-V1 cells [2]): 3.8% and 0%
IC50 (KB-3 cells; KB3, 72 hours): 0.04 µM
IC50 (CEM/VLB100 cells): 5 µM

COc1cc(C=CC(=O)O[C@H]2C[C@H]3C[C@H](OC(=O)C=Cc4cc(OC)c(OC)c(OC)c4)[C@@H](C2)N3C)cc(OC)c1OC [Compound 6, 3α,6β-di-(3,4,5-trimethoxycinnamoyloxy)tropane]
IC50 ([3]; read-out: IC50 BSKVLB (pGp + ve)): > 10 µM
IC50 ([3]; read-out: IC50 SKVLB (pGp + ve), addition of adriamycin): 0.08 µM
IC50 [4]: 2.8 µM
IC50 (KB-V1, drug resistant KB; Homo sapiens, KB-V1, drug-resistant KB assessed in the absence of vinblastine, read-out: ED50 KB-V1−): 9 µg/mL (≈ 15.1 µM)
ED50 KB-V1+ (KB-V1, drug resistant KB; drug resistant KB assessed in presence of vinblastine (1 μg/mL)): 0.1 µg/mL
synergy value at a 95% confidence level, HCT-15 (HCT-15, colon): 946.7
IC50 [5]: > 20 µg/mL
IC50 [6]: 2.2 µg/mL (≈ 3.68 µM)
synergy value at a 95% confidence level, LOX IMVI (LOX IMVI, melanoma): 32.6
IC50 (KB-V1 cells [7]; Homo sapiens, KB-V1, absence of vinblastine, 72 hours, read-out: IC50 KB-V1 (−)): 15 µM
Ratio of IC50 values [KB-V1 (−)]/[KB-V1 (+)] (KB-V1 cells [7]; vinblastine 1 μg/ml): 88
IC50 [8]: 1.4 µg/mL (≈ 2.34 µM)
IC50 (Col2, colon cancer): 4.1 µg/mL (≈ 6.86 µM)
synergy value at a 95% confidence level, UO-31 (UO-31, renal): 444.0
growth inhibition, administered as single agents (KB-V1 cells [2]): not significantly inhibited
Calculated inhibition (vinblastine + reversing agent as single agents), KB-V1, i.p. site (KB-V1 cells [2]; [10]): 15.9%
Calculated inhibition (vinblastine + reversing agent as single agents), KB-V1, s.c. site (KB-V1 cells [2]; [10]): 3.8%
Observed inhibition from coadministration with vinblastine, KB-V1, s.c. site (KB-V1 cells [2]; [9]): 0.2 (P = 0.96) %
Observed inhibition from coadministration with vinblastine, KB-V1, i.p. site (KB-V1 cells [2]; vinblastine 250 μg/kg + reversing agent 0.136 mmol/kg, listed as pervilleine C): 77.7 (P < 0.0001) %
Growth inhibition, single agent, KB-V1, s.c. site (KB-V1 cells [2]): 0%
synergy value at a 95% confidence level, CAKI-1 (CAKI-1, renal): 332.3
IC50 (KB-3 cells; KB3, 72 h): 3.7 µM
IC50 (BC1, breast cancer): 2.8 µg/mL (≈ 4.68 µM)
IC50 (Lu1, lung cancer): 2.3 µg/mL (≈ 3.85 µM)
